Assay results from patent US9056874B2, “Complement pathway modulators and uses thereof” (NOVARTIS AG, priority 2012, dated 2015).

molecular target: factor B (Homo sapiens, UniProt P00751); assay: factor B inhibition assay of Biological Example 1; type: biochemical; set-up: CVF-Bb complex prepared from purified cobra venom factor (1 μM), recombinant human complement factor B; made in house; host or cells: drosophila cells (factor B); E. coli (factor D used to form the complex); conditions: IC50 (nM), assay of Biological Example 1 (Table 1)
Sequence (P00751 260-764 limits assumed): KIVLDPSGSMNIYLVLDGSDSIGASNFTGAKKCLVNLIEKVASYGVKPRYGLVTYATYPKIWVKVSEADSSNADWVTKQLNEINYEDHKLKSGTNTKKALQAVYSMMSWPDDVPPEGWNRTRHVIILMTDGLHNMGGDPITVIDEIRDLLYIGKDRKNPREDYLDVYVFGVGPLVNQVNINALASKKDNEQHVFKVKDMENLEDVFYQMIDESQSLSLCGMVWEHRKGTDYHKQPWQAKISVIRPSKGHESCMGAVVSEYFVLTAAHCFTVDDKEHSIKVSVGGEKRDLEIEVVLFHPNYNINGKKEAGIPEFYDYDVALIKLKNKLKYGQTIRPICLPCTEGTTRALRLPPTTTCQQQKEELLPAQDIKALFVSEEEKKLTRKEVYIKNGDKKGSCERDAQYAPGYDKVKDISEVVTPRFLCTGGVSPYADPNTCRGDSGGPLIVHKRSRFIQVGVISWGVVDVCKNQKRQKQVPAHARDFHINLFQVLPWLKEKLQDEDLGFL
Sequence (Q91132 23-649 partner limits assumed): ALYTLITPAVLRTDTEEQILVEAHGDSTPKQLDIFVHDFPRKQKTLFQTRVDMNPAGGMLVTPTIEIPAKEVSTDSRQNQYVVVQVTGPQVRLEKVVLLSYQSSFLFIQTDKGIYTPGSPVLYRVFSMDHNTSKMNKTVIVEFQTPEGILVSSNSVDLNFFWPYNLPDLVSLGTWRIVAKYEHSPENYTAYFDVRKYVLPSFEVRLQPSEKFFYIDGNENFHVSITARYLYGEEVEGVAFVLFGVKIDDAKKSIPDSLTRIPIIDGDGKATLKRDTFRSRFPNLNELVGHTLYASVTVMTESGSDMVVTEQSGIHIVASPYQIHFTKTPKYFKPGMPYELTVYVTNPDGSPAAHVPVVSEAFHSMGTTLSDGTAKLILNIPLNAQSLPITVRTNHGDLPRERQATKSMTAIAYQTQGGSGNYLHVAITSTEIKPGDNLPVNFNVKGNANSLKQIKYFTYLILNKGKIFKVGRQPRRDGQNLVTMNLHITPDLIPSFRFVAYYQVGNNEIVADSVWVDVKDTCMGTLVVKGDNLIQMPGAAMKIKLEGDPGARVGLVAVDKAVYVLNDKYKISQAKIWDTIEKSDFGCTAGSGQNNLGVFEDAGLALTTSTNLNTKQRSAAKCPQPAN
Sequence (Q91132 733-984 partner limits assumed): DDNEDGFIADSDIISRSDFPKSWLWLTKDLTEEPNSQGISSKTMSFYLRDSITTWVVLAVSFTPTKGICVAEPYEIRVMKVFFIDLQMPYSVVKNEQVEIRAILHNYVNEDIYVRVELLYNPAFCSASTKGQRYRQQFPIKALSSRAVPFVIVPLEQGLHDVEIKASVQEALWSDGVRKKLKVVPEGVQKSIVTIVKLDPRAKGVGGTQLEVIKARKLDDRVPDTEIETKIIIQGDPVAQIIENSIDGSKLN
Sequence (Q91132 1264-1642 partner limits assumed): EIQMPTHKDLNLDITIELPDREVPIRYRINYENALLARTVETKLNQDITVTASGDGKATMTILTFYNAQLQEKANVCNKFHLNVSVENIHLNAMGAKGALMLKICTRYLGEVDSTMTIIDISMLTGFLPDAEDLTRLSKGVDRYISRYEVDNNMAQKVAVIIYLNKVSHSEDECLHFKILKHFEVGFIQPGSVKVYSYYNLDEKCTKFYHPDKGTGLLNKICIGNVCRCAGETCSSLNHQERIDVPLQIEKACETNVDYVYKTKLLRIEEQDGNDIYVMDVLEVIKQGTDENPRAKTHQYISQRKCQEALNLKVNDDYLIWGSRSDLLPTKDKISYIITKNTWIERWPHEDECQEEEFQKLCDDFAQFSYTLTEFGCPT

| SMILES | IC50 [nM] |
| --- | --- |
| COc1cc(C)c2[nH]ccc2c1C(O)c1nc2cc(C#N)ccc2[nH]1 (single isomer, unassigned; (+)) [24-B b) (+), (+)-2-(hydroxy(5-methoxy-7-methyl-1H-indol-4-yl)methyl)-1H-benzo[d]imidazole-5-carbonitrile] | 370 |
| CCOc1cc(C)c2[nH]ccc2c1C(O)c1nc2cc(C#N)ccc2[nH]1 (single isomer, unassigned; (+)) [24-C b) (+), (+)-2-((5-ethoxy-7-methyl-1H-indol-4-yl)(hydroxy)methyl)-1H-benzo[d]imidazole-5-carbonitrile] | 6050 |
| Cc1cc(OC(C)C)c(C(O)c2nc3cc(C#N)ccc3[nH]2)c2cc[nH]c12 (single isomer, unassigned; (+)) [24-D b) (+), (+)-2-(hydroxy(5-isopropoxy-7-methyl-1H-indol-4-yl)methyl)-1H-benzo[d]imidazole-5-carbonitrile] | 1980 |
| CCOc1cc(C)c2[nH]ccc2c1C(C)(O)c1nc2cc(C#N)ccc2[nH]1 (single isomer, unassigned; (+)) [26-D b) (+), (+)-2-(1-(5-ethoxy-7-methyl-1H-indol-4-yl)-1-hydroxyethyl)-1H-benzo[d]imidazole-5-carbonitrile] | 360 |
| CCC(O)(c1nc2cc(C#N)ccc2[nH]1)c1c(OC(C)C)cc(C)c2[nH]ccc12 (single isomer, unassigned; (+)) [26-F b) (+), (+)-2-(1-hydroxy-1-(5-isopropoxy-7-methyl-1H-indol-4-yl)propyl)-1H-benzo[d]imidazole-5-carbonitrile] | 230 |
| Cc1cc(OCC2CC2)c(C(C)(O)c2nc3cc(C#N)ccc3[nH]2)c2cc[nH]c12 (single isomer, unassigned; (+)) [26-G b) (+), (+)-2-(1-(5-(cyclopropylmethoxy)-7-methyl-1H-indol-4-yl)-1-hydroxyethyl)-1H-benzo[d]imidazole-5-carbonitrile] | 4950 |
| COc1cc(C)c2[nH]ccc2c1C(C)(OC)c1nc2cc(C#N)ccc2[nH]1 (single isomer, unassigned; (+)) [27-B b) (+), (+)-2-(1-methoxy-1-(5-methoxy-7-methyl-1H-indol-4-yl)ethyl)-1H-benzo[d]imidazole-5-carbonitrile] | 60 |
| [2H]C([2H])([2H])C(OC)(c1nc2cc(C#N)ccc2[nH]1)c1c(OC)cc(C)c2[nH]ccc12 (single isomer, unassigned; (+)) [27-E b) (+), (+)-2-((^2H3)methyl(methoxy)(5-methoxy-7-methyl-1H-indol-4-yl)methyl)-1H-benzo[d]imidazole-5-carbonitrile] | 90 |
| COc1cc(C)c2[nH]cc(Cl)c2c1C(O)c1nc2cc(C#N)ccc2[nH]1 (single isomer, unassigned; (+)) [28-C b) (+), (+)-2-((3-chloro-5-methoxy-7-methyl-1H-indol-4-yl)(hydroxy)methyl)-1H-benzo[d]imidazole-5-carbonitrile] | 53900 |
| COc1cc(C)c2[nH]ccc2c1C(O)(c1nc2cc(C#N)ccc2[nH]1)C(F)(F)F (single isomer, unassigned; (+)) [33-B b) (+), (+)-2-(2,2,2-trifluoro-1-hydroxy-1-(5-methoxy-7-methyl-1H-indol-4-yl)ethyl)-1H-benzo[d]imidazole-5-carbonitrile] | 430 |
| COc1cc(C)c2[nH]ccc2c1C(OC)(c1nc2cc(C#N)ccc2[nH]1)C(F)(F)F (single isomer, unassigned; (+)) [34-B b) (+), (+)-2-(2,2,2-trifluoro-1-methoxy-1-(5-methoxy-7-methyl-1H-indol-4-yl)ethyl)-1H-benzo[d]imidazole-5-carbonitrile] | 50 |
| COc1cc(C)c2[nH]ccc2c1C(OCC(=O)O)(c1nc2cc(C#N)ccc2[nH]1)C(F)(F)F (single isomer, unassigned; (+)) [35-C (+), (+)-2-(1-(5-cyano-1H-benzo[d]imidazol-2-yl)-2,2,2-trifluoro-1-(5-methoxy-7-methyl-1H-indol-4-yl)ethoxy)acetic acid] | 4870 |
| CNC(c1nc2cc(C#N)ccc2[nH]1)(c1c(OC)cc(C)c2[nH]ccc12)C(F)(F)F (single isomer, unassigned; (+)) [38-B b) (+), (+)-2-(2,2,2-trifluoro-1-(5-methoxy-7-methyl-1H-indol-4-yl)-1-(methylamino)ethyl)-1H-benzo[d]imidazole-5-carbonitrile] | 140 |
| COc1cc(C)c2[nH]ccc2c1C(C)(N)c1nc2cc(C#N)ccc2[nH]1 (single isomer, unassigned; (+)) [41-B b) (+), (+)-2-(1-amino-1-(5-methoxy-7-methyl-1H-indol-4-yl)ethyl)-1H-benzo[d]imidazole-5-carbonitrile] | 190 |
| CNC(C)(c1nc2cc(C#N)ccc2[nH]1)c1c(OC)cc(C)c2[nH]ccc12 (single isomer, unassigned; (+)) [42-D b) (+), (+)-2-(1-(5-methoxy-7-methyl-1H-indol-4-yl)-1-(methylamino)ethyl)-1H-benzo[d]imidazole-5-carbonitrile] | 130 |
| Cc1cc(C)c2[nH]ccc2c1C(O)c1nc2cc(C#N)ccc2[nH]1 (single isomer, unassigned; (+)) [64-C b) (+), (+)-2-((5,7-dimethyl-1H-indol-4-yl)(hydroxy)methyl)benzo[d]imidazole-5-carbonitrile] | 340 |
| Cc1cc(CO)c(C(O)c2nc3cc(C#N)ccc3[nH]2)c2cc[nH]c12 (single isomer, unassigned; (+)) [65-D b) (+), (+)-2-(hydroxy(5-(hydroxymethyl)-7-methyl-1H-indol-4-yl)methyl)-1H-benzo[d]imidazole-5-carbonitrile] | 6200 |
| CCOCc1cc(C)c2[nH]ccc2c1C(O)c1nc2cc(C#N)ccc2[nH]1 (single isomer, unassigned; (+)) [66-D b) (+), (+)-2-((5-(ethoxymethyl)-7-methyl-1H-indol-4-yl)(hydroxy)methyl)-1H-benzo[d]imidazole-5-carbonitrile] | 30400 |
| CCc1cc(C)c2[nH]ccc2c1C(O)c1nc2cc(C#N)ccc2[nH]1 (single isomer, unassigned; (+)) [67-A b) (+), (+)-2-((5-ethyl-7-methyl-1H-indol-4-yl)(hydroxy)methyl)-1H-benzo[d]imidazole-5-carbonitrile] | 1160 |
| Cc1cc(CC(C)C)c(C(O)c2nc3cc(C#N)ccc3[nH]2)c2cc[nH]c12 (single isomer, unassigned; (+)) [67-C b) (+), (+)-2-(hydroxy(5-(isobutyl)-7-methyl-1H-indol-4-yl)methyl)-1H-benzo[d]imidazole-5-carbonitrile] | 8770 |
| Cc1cc(C(C)C)c(C(O)c2nc3cc(C#N)ccc3[nH]2)c2cc[nH]c12 (single isomer, unassigned; (+)) [67-D b) (+), (+)-2-(hydroxy(5-isopropyl-7-methyl-1H-indol-4-yl)methyl)-1H-benzo[d]imidazole-5-carbonitrile] | 3220 |
| Cc1cc(Cl)c(C(O)c2nc3cc(C#N)ccc3[nH]2)c2cc[nH]c12 (single isomer, unassigned; (+)) [67-E b) (+), (+)-2-((5-chloro-7-methyl-1H-indol-4-yl)(hydroxy)methyl)-1H-benzo[d]imidazole-5-carbonitrile] | 2080 |
| Cc1cc(C)c2[nH]ccc2c1C(O)c1nc2c(C)c(C#N)ccc2[nH]1 (single isomer, unassigned; (+)) [67-G b) (+), (+)-2-((5,7-dimethyl-1H-indol-4-yl)(hydroxy)methyl)-4-methyl-1H-benzo[d]imidazole-5-carbonitrile] | 2980 |
| CCc1cc(C)c2[nH]ccc2c1C(OC)c1nc2cc(C#N)ccc2[nH]1 (single isomer, unassigned; (+)) [70-D b) (+), (+)-2-((5-ethyl-7-methyl-1H-indol-4-yl)(methoxy)methyl)-1H-benzo[d]imidazole-5-carbonitrile] | 950 |
| COC(c1nc2cc(C#N)ccc2[nH]1)c1c(CC(C)C)cc(C)c2[nH]ccc12 (single isomer, unassigned; (+)) [71 b) (+), (+)-2-((5-isobutyl-7-methyl-1H-indol-4-yl)(methoxy)methyl)-1H-benzo[d]imidazole-5-carbonitrile] | 4550 |
| Cc1cc(C)c2[nH]ccc2c1C(C)(O)c1nc2cc(C#N)ccc2[nH]1 (single isomer, unassigned; (+)) [76-B b) (+), (+)-2-(1-(5,7-Dimethyl-1H-indol-4-yl)-1-hydroxyethyl)-1H-benzo[d]imidazole-5-carbonitrile] | 290 |
| CCc1cc(C)c2[nH]ccc2c1C(C)(O)c1nc2cc(C#N)ccc2[nH]1 (single isomer, unassigned; (+)) [77-C b) (+), (+)-2-(1-(5-ethyl-7-methyl-1H-indol-4-yl)-1-hydroxyethyl)-1H-benzo[d]imidazole-5-carbonitrile] | 40 |
| Cc1cc(C(C)C)c(C(C)(O)c2nc3cc(C#N)ccc3[nH]2)c2cc[nH]c12 (single isomer, unassigned; (+)) [79-B b) (+), (+)-2-(1-hydroxy-1-(5-isopropyl-7-methyl-1H-indol-4-yl)ethyl)-1H-benzo[d]imidazole-5-carbonitrile] | 1070 |
| Cc1cc(C2CC2)c(C(C)(O)c2nc3cc(C#N)ccc3[nH]2)c2cc[nH]c12 (single isomer, unassigned; (+)) [79-C b) (+), (+)-2-(1-(5-cyclopropyl-7-methyl-1H-indol-4-yl)-1-hydroxyethyl)-1H-benzo[d]imidazole-5-carbonitrile] | 8 |

same assay, conditions: assay of Biological Example 1 (Table 1)

| SMILES | IC50 [nM] |
| --- | --- |
| Cc1cc(OC(C)C)c(C(C)(O)c2nc3cc(C#N)ccc3[nH]2)c2cc[nH]c12 (single isomer, unassigned; (+)) [26-E b) (+), (+)-2-(1-hydroxy-1-(5-isopropoxy-7-methyl-1H-indol-4-yl)ethyl)-1H-benzo[d]imidazole-5-carbonitrile] | 170 |
